Assays:
human TLR9 = target: T1, human TLR9 (Homo sapiens, UniProt Q9NR96); assay: Inhibition of human TLR9 in human B cells (IL-6 ELISA); type: cell-based; settings: human B cells, agonist 1018 ISS 1 μM, IL-6 readout, 48 hours; range about 0.01 to 10 μM; read-out: Human TLR9 IC50
T1 construct: endogenous in cells; host or cells: primary human B cells (CD19 microbeads) from buffy coats of healthy donors
T1 sequence (Q9NR96 26-1032): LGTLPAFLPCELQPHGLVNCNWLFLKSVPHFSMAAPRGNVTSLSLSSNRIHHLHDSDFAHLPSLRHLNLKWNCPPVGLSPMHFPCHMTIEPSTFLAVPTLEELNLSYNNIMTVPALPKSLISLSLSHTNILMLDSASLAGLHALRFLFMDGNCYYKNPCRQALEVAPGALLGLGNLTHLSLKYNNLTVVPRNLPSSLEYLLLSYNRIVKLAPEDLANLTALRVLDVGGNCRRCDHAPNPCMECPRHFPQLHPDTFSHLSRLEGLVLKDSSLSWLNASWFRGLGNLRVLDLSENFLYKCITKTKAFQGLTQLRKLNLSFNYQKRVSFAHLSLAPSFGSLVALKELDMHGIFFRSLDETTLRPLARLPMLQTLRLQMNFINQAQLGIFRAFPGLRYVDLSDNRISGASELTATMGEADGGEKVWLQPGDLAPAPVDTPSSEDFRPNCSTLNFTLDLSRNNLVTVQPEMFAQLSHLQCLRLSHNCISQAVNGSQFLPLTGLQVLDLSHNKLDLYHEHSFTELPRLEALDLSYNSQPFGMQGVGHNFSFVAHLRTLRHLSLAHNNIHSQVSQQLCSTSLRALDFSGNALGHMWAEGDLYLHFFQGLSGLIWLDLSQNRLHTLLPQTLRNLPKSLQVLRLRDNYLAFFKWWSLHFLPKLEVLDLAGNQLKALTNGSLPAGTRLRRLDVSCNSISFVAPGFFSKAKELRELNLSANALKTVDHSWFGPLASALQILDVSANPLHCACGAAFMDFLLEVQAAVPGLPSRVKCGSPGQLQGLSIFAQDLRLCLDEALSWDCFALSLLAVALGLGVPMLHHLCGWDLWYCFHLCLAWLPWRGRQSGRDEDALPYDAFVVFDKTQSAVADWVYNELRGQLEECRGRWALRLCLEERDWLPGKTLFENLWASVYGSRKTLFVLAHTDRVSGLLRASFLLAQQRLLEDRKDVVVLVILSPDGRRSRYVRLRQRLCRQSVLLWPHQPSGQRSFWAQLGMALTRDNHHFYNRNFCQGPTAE
Summary of the method: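 Primary human B cells (CD19-isolated from donor buffy coats), ~300,000 per well, treated with compound (about 0.01–10 μM, some 0.001–30 μM) then 1 μM CpG oligonucleotide 1018 ISS. After 48 hours at 37° C, supernatant IL-6 measured by ELISA; IC50 from concentration-response of TLR9-dependent activity.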

human TLR8 = target: T2, human TLR8 (Homo sapiens, UniProt Q9NR97); assay: Inhibition of human TLR8 in human monocytes (TNF-alpha / IL-1 beta ELISA); type: cell-based; settings: human monocytes, agonist ORN8L 100 μg/mL, TNF-alpha readout, 24 hours; read-out: Human TLR8 IC50 TNF-a
T2 construct: endogenous in cells; host or cells: primary human monocytes (CD14 microbeads) from buffy coats of healthy donors
T2 sequence (Q9NR97 27-1041): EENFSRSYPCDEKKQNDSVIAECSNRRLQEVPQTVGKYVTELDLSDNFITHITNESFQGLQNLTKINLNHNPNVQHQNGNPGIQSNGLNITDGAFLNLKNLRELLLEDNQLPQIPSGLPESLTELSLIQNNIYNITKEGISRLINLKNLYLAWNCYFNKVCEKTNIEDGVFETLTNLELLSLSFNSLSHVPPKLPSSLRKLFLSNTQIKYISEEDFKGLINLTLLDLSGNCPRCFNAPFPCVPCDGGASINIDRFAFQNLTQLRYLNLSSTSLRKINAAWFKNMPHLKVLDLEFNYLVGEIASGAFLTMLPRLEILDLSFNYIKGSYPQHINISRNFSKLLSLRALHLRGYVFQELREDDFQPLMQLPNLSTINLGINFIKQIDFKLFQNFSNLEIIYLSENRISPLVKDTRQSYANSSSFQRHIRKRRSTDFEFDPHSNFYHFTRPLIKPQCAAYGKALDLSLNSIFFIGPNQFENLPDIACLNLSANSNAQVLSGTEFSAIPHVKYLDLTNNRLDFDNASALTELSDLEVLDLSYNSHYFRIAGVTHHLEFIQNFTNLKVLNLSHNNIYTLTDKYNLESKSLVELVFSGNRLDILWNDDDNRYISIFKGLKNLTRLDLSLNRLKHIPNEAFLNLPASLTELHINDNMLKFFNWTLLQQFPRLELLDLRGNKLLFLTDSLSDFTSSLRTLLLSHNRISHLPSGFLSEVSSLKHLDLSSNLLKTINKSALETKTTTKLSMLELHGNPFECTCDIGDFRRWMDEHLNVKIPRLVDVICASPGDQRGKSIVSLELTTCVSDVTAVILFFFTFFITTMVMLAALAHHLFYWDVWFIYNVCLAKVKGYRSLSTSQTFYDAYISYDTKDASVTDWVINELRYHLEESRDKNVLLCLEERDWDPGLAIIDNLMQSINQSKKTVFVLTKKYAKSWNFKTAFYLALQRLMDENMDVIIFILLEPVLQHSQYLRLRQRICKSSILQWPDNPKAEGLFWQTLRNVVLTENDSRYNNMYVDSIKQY
Summary of the method: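 Primary human monocytes from donor buffy coats (~200,000 cells/well) given serially diluted compound, then ORN8L RNA oligonucleotide agonist at 100 μg/mL final. After 24 h at 37 °C, supernatant TNF-alpha and/or IL-1 beta measured by ELISA; IC50 from the concentration-response of cytokine release.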

IC50 (human TLR9) [nM] | IC50 (human TLR8) [nM] | SMILES
588 | ≥ 20000 | Cc1ccc(-n2nc3c(N4CCC(C(=O)N5CC6CNCC6C5)CC4)nnc(C)c3c2C)cc1 (stereo not shown) [compound 71, (1-(3,4-dimethyl-2-(p-tolyl)-2H-pyrazolo[3,4-d]pyridazin-7-yl)piperidin-4-yl) (hexahydropyrrolo[3,4-c]pyrrol-2(1H)-yl)methanone]
12 | 9170 | Cc1ccc(-n2nc3c(N4CCC(C(=O)N5CC6CN(C)CC6C5)CC4)nnc(C)c3c2C)cc1 (stereo not shown) [compound 72, (1-(3,4-dimethyl-2-(p-tolyl)-2H-pyrazolo[3,4-d]pyridazin-7-yl)piperidin-4-yl)(5-methylhexahydropyrrolo[3,4-c]pyrrol-2(1H)-yl)methano]
1140 | ≥ 20000 | Cc1ccc(-n2nc3c(N4CCC(C(=O)N5CCC6(CC5)CNC6)CC4)nnc(C)c3c2C)cc1 [compound 73, (1-(3,4-dimethyl-2-(p-tolyl)-2H-pyrazolo[3,4-d]pyridazin-7-yl)piperidin-4-yl)(2,7-diazaspiro[3.5]nonan-7-yl)methanone]
2590 | ≥ 20000 | Cc1ccc(-n2nc3c(N4CCC(C(=O)N5CCC6(CNC6)C5)CC4)nnc(C)c3c2C)cc1 [compound 74, (1-(3,4-dimethyl-2-(p-tolyl)-2H-pyrazolo[3,4-d]pyridazin-7-yl)piperidin-4-yl)(2,6-diazaspiro[3.4]octan-6-yl)methanone]
25 | ≥ 20000 | Cc1ccc(-n2nc3c(N4CCC(C(=O)N5CCC6(CN(C)C6)C5)CC4)nnc(C)c3c2C)cc1 [compound 75, (1-(3,4-dimethyl-2-(p-tolyl)-2H-pyrazolo[3,4-d]pyridazin-7-yl)piperidin-4-yl)(2-methyl-2,6-diazaspiro[3.4]octan-6-yl)methanone]

From US11370794B2, “Toll-like receptor antagonist compounds and methods of use” (Dynavax Technologies Corporation, priority 2016, dated 2022)
